Values after ≈ are worked out from the molar mass of the structure shown.
Key:
[1] = test system: Mycobacterium tuberculosis; assay: Antimycobacterial activity against Mycobacterium bovis BCG overexpressing InhA after 2 weeks; type: functional; settings: variant bovis BCG, 336 h
[2] = test system: Mycobacterium tuberculosis; assay: Antimycobacterial activity against Mycobacterium bovis BCG after 2 weeks; type: functional; settings: variant bovis BCG, 336 h
[3] = test system: Mycobacterium tuberculosis; assay: Ratio of MIC for Mycobacterium bovis BCG overexpressing InhA to MIC for Mycobacterium bovis BCG; type: functional, variant bovis BCG

SMILES	MIC [1]	MIC [2]	Ratio [3]
Cc1cc(C)n(Cc2ccc(C(=O)NCC3(c4nc(-c5ccccc5)cs4)CCOCC3)cc2)n1	31.3 µg/mL (≈ 64.3 µM)	7.8 µg/mL (≈ 16 µM)	4
NNC(=O)c1ccncc1 [ISONIAZID]	> 16 µg/mL	0.75 µg/mL (≈ 5.47 µM)	>21
NC[C@H]1O[C@H](O[C@H]2[C@H](O)[C@@H](O[C@H]3O[C@H](CO)[C@@H](O)[C@H](N)[C@H]3O)[C@H](N)C[C@@H]2N)[C@H](O)[C@@H](O)[C@@H]1O [KANAMYCIN]	0.6 µg/mL (≈ 1.24 µM)	0.6 µg/mL (≈ 1.24 µM)	1
